Tested on: patients with evidence of coronary artery disease
Experiment: dal-PLAQUE-2: change in carotid intima-media thickness (B-mode ultrasound) by ADCY9 genotype
Type: in vivo, human
Excerpt: The dal-PLAQUE-2 study (Tardif J C et al, Circulation Cardiovascular imaging 2011; 4:319-33) was a phase 3b multicenter, double-blind, randomized, placebo-controlled, parallel group trial designed to evaluate the effect of dalcetrapib on atherosclerotic disease progression in patients with evidence of coronary artery disease and carotid intima media thickness of at least 0.65 mm in the far wall of the common carotid arteries, as assessed by B-mode ultrasonography. A total of 931 patients were randomized to receive dalcetrapib 600 mg daily or matching placebo with intended treatment duration of 24 months. However, the trial was terminated prematurely concurrent with the termination of dal OUTCOMES (the latter due to futility). Patients continued study medication until they returned for follow-up carotid imaging at 12 months. Carotid B-mode ultrasound recordings at baseline, month 6, and month 12 were analyzed centrally at the core laboratory of the Montreal Heart Institute. Intima-media thickness (IMT) was analyzed on the far wall of the common carotid arteries. A segment of 10 mm in length of the common carotid artery was analyzed on serial examinations using an automated edge detection software (Carotid Analyzer, Medical Imaging Applications, Coralville, Iowa). Among the 411 participants in the dal-PLAQUE-2 trial who consented to the genetic study, 386 had imaging measures at baseline, 6 months and 12 months (194 and 192 in the dalcetrapib and placebo arms respectively). DNA was extracted from whole blood. The research protocols were approved by the relevant institutional review boards or ethics committees and all human participants gave written informed consent.
All acquired carotid ultrasound recordings were analyzed at the core laboratory of the Montreal Heart Institute by experienced technicians supervised by a physician. Images were required to meet quality and inclusion and exclusion criteria for eligibility prior to random assignment to study treatment. The methods for carotid intima-media thickness analysis included side-by-side viewing of baseline and follow-up studies.
Carotid arterial wall segments were assessed in a longitudinal view, perpendicular to the ultrasound beam, with a horizontal display of the arterial image in order to view the interfaces between blood and vascular structures on the longest possible segment. The localization of the end of the common carotid artery was used as the landmark in repositioning and analyzing comparative length of segments in baseline and follow-up studies. Intima-media thickness was analyzed on the far wall of the right and left common carotid arteries, to reduce variability of measurements. The average of the mean intima-media thickness values of the right and left common carotid arteries was used. A matched segment of 10 mm in length of the common carotid artery was analyzed on serial examinations (baseline, 6 months and 12 months), starting 5 mm proximal to the carotid bifurcation. The edge detection software Carotid Analyzer (Medical Imaging Applications LLC, Coralville, Iowa) was used to analyze intima-media thickness using the automated option. Two sets of carotid artery borders were identified: First, the media-adventitia borders were determined and verified by the reader. When required, their locations were semi-automatically modified to the correct location. When these borders were approved, the lumen-intima boundaries were automatically detected using the media-adventitia borders for guidance. Frames from looped sequences of intima-media thickness were selected for reading, and poor quality outlier frames were removed from the analysis when required.
For the dal-Plaque-2 population, mixed regression models for repeated measures analysis were tested in SAS software. The dal-Plaque-2 tested endpoint was the mean of IMT measures of common carotid arteries at the 6-month and the 12-month visits, using the baseline measure as covariate. […]

## CCC(CC)CC1(C(=O)Nc2ccccc2SC(=O)C(C)C)CCCCC1 [dalcetrapib, thioisobutyric acid S-(2-{[1-(2-ethyl-butyl)-cyclohexanecarbonyl]-amino}-phenyl) ester]
rs8061182, homozygotes for minor allele, M12
  Change from baseline in carotid intima-media thickness, Mean: −0.001 mm
rs11647778, heterozygotes, M06
  Change from baseline in carotid intima-media thickness, Mean: −0.002 mm
rs11647778, heterozygotes, M12
  Change from baseline in carotid intima-media thickness, Mean: 0.001 mm
rs11647778, homozygotes for major allele, M06
  Change from baseline in carotid intima-media thickness, Mean: 0.011 mm
rs11647778, homozygotes for major allele, M12
  Change from baseline in carotid intima-media thickness, Mean: 0.008 mm
rs11647778, homozygotes for minor allele, M06
  Change from baseline in carotid intima-media thickness, Mean: −0.013 mm
rs11647778, homozygotes for minor allele, M12
  Change from baseline in carotid intima-media thickness, Mean: −0.026 mm
rs11647828, heterozygotes, M06
  Change from baseline in carotid intima-media thickness, Mean: −0.002 mm
rs11647828, heterozygotes, M12
  Change from baseline in carotid intima-media thickness, Mean: −0.003 mm
rs11647828, homozygotes for major allele, M06
  Change from baseline in carotid intima-media thickness, Mean: 0.011 mm
rs11647828, homozygotes for major allele, M12
  Change from baseline in carotid intima-media thickness, Mean: 0.009 mm
rs11647828, homozygotes for minor allele, M06
  Change from baseline in carotid intima-media thickness, Mean: −0.018 mm
rs11647828, homozygotes for minor allele, M12
  Change from baseline in carotid intima-media thickness, Mean: −0.020 mm
rs12595857, heterozygotes, M06
  Change from baseline in carotid intima-media thickness, Mean: −0.003 mm
rs12595857, heterozygotes, M12
  Change from baseline in carotid intima-media thickness, Mean: −0.002 mm
rs12595857, homozygotes for major allele, M06
  Change from baseline in carotid intima-media thickness, Mean: 0.011 mm
rs12595857, homozygotes for major allele, M12
  Change from baseline in carotid intima-media thickness, Mean: 0.010 mm
rs12595857, homozygotes for minor allele, M06
  Change from baseline in carotid intima-media thickness, Mean: −0.008 mm
rs12595857, homozygotes for minor allele, M12
  Change from baseline in carotid intima-media thickness, Mean: −0.018 mm
rs12599911, heterozygotes, M06
  Change from baseline in carotid intima-media thickness, Mean: −0.003 mm
rs12599911, heterozygotes, M12
  Change from baseline in carotid intima-media thickness, Mean: −0.002 mm
rs12599911, homozygotes for major allele, M06
  Change from baseline in carotid intima-media thickness, Mean: 0.011 mm
rs12599911, homozygotes for major allele, M12
  Change from baseline in carotid intima-media thickness, Mean: 0.010 mm
rs12599911, homozygotes for minor allele, M06
  Change from baseline in carotid intima-media thickness, Mean: −0.008 mm
rs12599911, homozygotes for minor allele, M12
  Change from baseline in carotid intima-media thickness, Mean: −0.019 mm
rs12920508, heterozygotes, M06
  Change from baseline in carotid intima-media thickness, Mean: −0.003 mm
rs12920508, heterozygotes, M12
  Change from baseline in carotid intima-media thickness, Mean: −0.001 mm
rs12920508, homozygotes for major allele, M06
  Change from baseline in carotid intima-media thickness, Mean: 0.006 mm
rs12920508, homozygotes for major allele, M12
  Change from baseline in carotid intima-media thickness, Mean: 0.005 mm
rs12920508, homozygotes for minor allele, M06
  Change from baseline in carotid intima-media thickness, Mean: −0.005 mm
rs12920508, homozygotes for minor allele, M12
  Change from baseline in carotid intima-media thickness, Mean: −0.021 mm
rs12935810, heterozygotes, M06
  Change from baseline in carotid intima-media thickness, Mean: −0.003 mm
rs12935810, heterozygotes, M12
  Change from baseline in carotid intima-media thickness, Mean: −0.001 mm
rs12935810, homozygotes for major allele, M06
  Change from baseline in carotid intima-media thickness, Mean: −0.006 mm
rs12935810, homozygotes for major allele, M12
  Change from baseline in carotid intima-media thickness, Mean: −0.007 mm
rs12935810, homozygotes for minor allele, M06
  Change from baseline in carotid intima-media thickness, Mean: 0.021 mm
rs12935810, homozygotes for minor allele, M12
  Change from baseline in carotid intima-media thickness, Mean: 0.010 mm
rs13337675, heterozygotes, M06
  Change from baseline in carotid intima-media thickness, Mean: 0.002 mm
rs13337675, heterozygotes, M12
  Change from baseline in carotid intima-media thickness, Mean: 0.005 mm
rs13337675, homozygotes for minor allele, M06
  Change from baseline in carotid intima-media thickness, Mean: 0.016 mm
rs13337675, homozygotes for minor allele, M12
  Change from baseline in carotid intima-media thickness, Mean: −0.011 mm
rs17136707, heterozygotes, M06
  Change from baseline in carotid intima-media thickness, Mean: −0.006 mm
rs17136707, heterozygotes, M12
  Change from baseline in carotid intima-media thickness, Mean: −0.004 mm
rs17136707, homozygotes for minor allele, M06
  Change from baseline in carotid intima-media thickness, Mean: −0.015 mm
rs17136707, homozygotes for minor allele, M12
  Change from baseline in carotid intima-media thickness, Mean: −0.008 mm
rs74702385, heterozygotes, M06
  Change from baseline in carotid intima-media thickness, Mean: −0.006 mm
rs74702385, heterozygotes, M12
  Change from baseline in carotid intima-media thickness, Mean: −0.002 mm
rs74702385, homozygotes for minor allele, M06
  Change from baseline in carotid intima-media thickness, Mean: −0.015 mm
rs74702385, homozygotes for minor allele, M12
  Change from baseline in carotid intima-media thickness, Mean: −0.008 mm
rs111590482, heterozygotes, M06
  Change from baseline in carotid intima-media thickness, Mean: −0.006 mm
rs111590482, heterozygotes, M12
  Change from baseline in carotid intima-media thickness, Mean: −0.002 mm
rs111590482, homozygotes for minor allele, M06
  Change from baseline in carotid intima-media thickness, Mean: −0.015 mm
rs111590482, homozygotes for minor allele, M12
  Change from baseline in carotid intima-media thickness, Mean: −0.008 mm

— US12371748B2, “Genetic markers for predicting responsiveness to therapy with HDL-raising or HDL mimicking agent” (Hoffmann-La Roche Inc., priority 2014, dated 2025)
